Experiments:
[1] = Largest Soluble Hydrocarbon (LSH) test; type: physicochemical; conditions: hydrofluoroolefin:hydrocarbon about 1:1 to 1:2 by weight
Description: Largest Soluble Hydrocarbon (LSH): The LSH of each hydrofluoroolefin compound was determined by mixing the compound with hydrocarbons of varying molecular weight (CnH2n+2, where n=9 to 24) in a hydrofluoroolefin:hydrocarbon ratio of about 1:1 to 1:2 by weight at room temperature (25° C.) and at 50° C. […] A larger value of n is interpreted herein to indicate a greater ability of the hydrofluoroolefin to clean hydrocarbons.
The results presented in Table 2 indicate that the hydrofluoroolefins of the present invention are highly suitable fluids for cleaning applications.

[2] = Atmospheric lifetime from rates of reaction with hydroxyl radicals; type: physicochemical; conditions: Degrades by direct photolysis and ozonolysis; value stated as 'Likely'
Description: Atmospheric lifetime: The atmospheric lifetimes of hydrobromofluoroolefin Examples 1-3 were determined from their rates of reaction with hydroxyl radicals. The pseudo-first order rate for the reaction of the gaseous hydrobromofluoroolefin with hydroxyl radical was measured in a series of experiments relative to reference compounds such as chloromethane and ethane. The measurements were performed in a 5.7 L, heated FTIR gas cell equipped with a polished semiconductor-grade quartz window. An Oriel Instruments UV Lamp, Model 66921 equipped with a 480W mercury-xenon bulb was used to generate hydroxyl radicals by photolyzing ozone in the presence of water vapor. The concentrations of the hydrobromofluoroolefin and the reference compound were measured as a function of reaction time using an I-Series FTIR from Midac Corporation. The atmospheric lifetime was calculated from the reaction rates for the hydrobromofluoroolefin relative to the reference compounds and the reported lifetime of the reference compounds as shown below:
where τx is the atmospheric lifetime of hydrobromofluoroolefin, τr is the atmospheric lifetime of the reference compound, and kx and kr are the rate constants for the reaction of hydroxyl radical with hydrobromofluoroolefin and the reference compound, respectively.
The atmospheric lifetimes of Examples 1-3 were determined from their rates of reaction with hydroxyl radicals as described above and are reported in Table 3.

[3] = 25° C., longest hydrocarbon compatible without haze
[4] = 50° C., >23 = miscible with C23H48 without haze

Row | Structure (SMILES) | LSH (n in CnH2n+2) [1, 3] | LSH (n in CnH2n+2) [1, 4] | Atmospheric Lifetime [2]
1 | FC(=CCl)N1C(F)(F)C(F)(F)OC(F)(F)C1(F)F [Example 8, 4-(2-chloro-1-fluoro-vinyl)-2,2,3,3,5,5,6,6-octafluoro-morpholine] | 14 | 18 | –
2 | FC(=CCl)C(F)(F)N(C(F)(F)F)C(F)(F)C(F)(F)F [Example 9, 3-chloro-1,1,2-trifluoro-N-(1,1,2,2,2-pentafluoroethyl)-N-(trifluoromethyl)prop-2-en-1-amine] | 13 | 17 | –
3 | FC(=CBr)C(F)(F)C(F)(F)C(F)F [Example 4, I-bromo-2,3,3,4,4,5,5-heptafluoropent-1-ene] | 19 | >23 | –
4 | FC(=CCl)C(F)C(F)(F)F (stereo not drawn) [Example 10, 1-chloro-2,3,4,4,4-pentafluoro-but-1-ene] | 19 | >23 | –
5 | FC(=CBr)C(F)(F)C(F)(F)F [Example 2, 1-bromo-2,3,3,4,4,4-hexafluorobut-1-ene] | 19 | >23 | ozonolysis. Likely <0.05 years
6 | FC(=CCl)C(F)(F)C(F)(F)F [Example 6, 1-chloro-2,3,3,4,4,4-but-1-ene] | 19 | – | –
7 | FC(=CBr)C(F)F [Example 3, 1-bromo-2,3,3-trifluoroprop-1-ene] | 19 | >23 | ozonolysis. Likely <0.05 years
8 | FC(=CCl)C(F)OC(F)(F)F (stereo not drawn) [Example 11, 1-chloro-2,3-difluoro-3-(trifluoromethoxy)prop-1-ene] | 18 | >23 | –
9 | FC(=CCl)C(F)(F)C(F)(F)C(F)(F)F [Example 5, 1-chloro-2,3,3,4,4,5,5,5-pent-1-ene] | 17 | 22 | –
10 | FC(=CBr)C(F)(F)F [Example 1, 1-bromo-2,3,3,3-tetrafluoroprop-1-ene] | 19 | >23 | ozonolysis. Likely <0.05 years
11 | FC(=CCl)C(F)(F)OC(F)(F)F [Example 7, 1-chloro-2,3,3-trifluoro-3-(trifluoromethoxy)prop-1-ene] | 19 | >23 | –
